Test results: patent US11311538B2, “Compositions and methods for targeting cancers” (YALE UNIVERSITY, priority 2018, dated 2022)

Key:
[1] = test system: shFH-expressing HEK293FT tumor xenografts; assay: Tumor growth delay assay, shFH HEK293FT xenografts; format: in vivo, mouse
Source text: In vivo efficacy studies: HEK293FT xenografts. Female athymic nu/nu mice (Hsd:Athymic Nude-Foxnlnu, Envigo) were used for all in vivo xenograft studies. Mice were quarantined for at least 1 week before experimental manipulation. Tumors were formed using shRNA-expressing versions of the tumorigenic human embryonic kidney cell-derived line, HEK293FT. HEK293FT is a subline of HEK293 cells that has been transformed by expression of SV40 Large T-antigen. […], or shCTRL (non-targeted control) expressing HEK293FT cells were implanted subcutaneously (5×10^6 cells in 0.1 cc PBS) in the right flank of nude mice. Two efficacy studies were conducted. In one, mice were randomized into treatment and non-treated groups (10 mice/group) at day 3, with treatment initiation 4 days post implant. In a second independent in vivo efficacy study, mice were injected as above with 10 mice per group, and treatment was started only once the tumor volumes reached […]. For both studies, mice were visually observed daily and tumors were measured three times per week by calipers to determine tumor volume using the formula: Volume=L×W×W×0.532. Mice were fed with a grain based rodent diet containing Doxycycline at 200 mg/kg (Bioserv, Catalog #S3888). BMN-673 was solubilized in DMSO and diluted with PBS containing 10% dimethylacetamide (Sigma-Aldrich) and 6% Solutol (Sigma). BMN-673 (0.5 mg/kg, 0.2 cc), or vehicle (0.2 cc) was administered by oral gavage once daily for the duration of the experiment. Mean (geometric) tumor volume (mm^3) was plotted over time to monitor tumor growth. P-values were determined by ANOVA with repeated measures. In vivo efficacy studies: UOK 262 xenografts. Female athymic nu/nu mice (Hsd:Athymic Nude-Foxnlnu, Envigo) were used for all in vivo xenograft studies. Mice were quarantined for at least 1 week before experimental manipulation. UOK 262 cells were implanted subcutaneously using 5×10^6 cells in 0.1 cc PBS mixed with 0.1 cc of Corning Matrigel Matrix (Cat. No. 354234) per animal. Mice were randomized at day 3 day into two groups (n=10/group). […]

UOK 262 = assay: Clonogenic survival assay in cell lines of renal origin; format: cell-based, human; settings: FIG. 4C (BMN-673), FIG. 8J (mitomycin C)
[2] = LC/MS analysis of intratumoral BMN-673; format: in vivo, mouse; settings: 24 h after single gavage dose of 1 or 10 mg/kg, LC/MS (FIG. 4J)
Source text: In vivo efficacy studies: HEK293FT xenografts. Female athymic nu/nu mice (Hsd:Athymic Nude-Foxnlnu, Envigo) were used for all in vivo xenograft studies. Mice were quarantined for at least 1 week before experimental manipulation. Tumors were formed using shRNA-expressing versions of the tumorigenic human embryonic kidney cell-derived line, HEK293FT. HEK293FT is a subline of HEK293 cells that has been transformed by expression of SV40 Large T-antigen. […], or shCTRL (non-targeted control) expressing HEK293FT cells were implanted subcutaneously (5×10^6 cells in 0.1 cc PBS) in the right flank of nude mice. Two efficacy studies were conducted. In one, mice were randomized into treatment and non-treated groups (10 mice/group) at day 3, with treatment initiation 4 days post implant. […] For both studies, mice were visually observed daily and tumors were measured three times per week by calipers to determine tumor volume using the formula: Volume=L×W×W×0.532. […] P-values were determined by ANOVA with repeated measures. […] The concentrations of BMN-673 in tumor samples were determined using liquid chromatography with tandem mass spectrometry (LC-MS/MS). […] BMN673 was monitored using the positive electrospray ionization mode at the most sensitive and specific mass transition, m/z 381.0>228.8. […]

HEK293FT and YUNK1 cells = assay: Clonogenic survival assay, PARP inhibitors, knockdown or metabolite-treated cells; format: cell-based, human; settings: knockdown of SDHB and FH or exogenous dimethyl-fumarate or succinate (FIGS. 4A-4B, 8E-8I)

intra-tumoral BMN-673 levels, shSDHB vs shCTRL HEK293FT tumors [2]: no significant difference
SMILES: Cn1ncnc1[C@H]1c2n[nH]c(=O)c3cc(F)cc(c23)N[C@@H]1c1ccc(F)cc1 [BMN-673, BMN-673 (Talazoparib)]
tumor growth vs vehicle, FH-deficient tumors ([1]; treatment after tumors reached 95-150 mm^3, 0.5 mg/kg oral gavage once daily (FIG. 4H)): inhibited the growth | tumor growth vs vehicle, shFH tumors ([1]; treatment beginning four days after implantation, 0.5 mg/kg oral gavage once daily (FIG. 4E)): robust suppression of tumor growth | growth of FH-deficient tumors ([1]; two separate sets of in vivo efficacy studies, 0.5 mg/kg oral gavage once daily): significantly inhibited the growth | sensitivity of UOK 262 relative to FH-proficient cell lines of renal origin, clonogenic survival (UOK 262): markedly more sensitive | sensitivity to the PARP inhibitor, clonogenic survival (HEK293FT and YUNK1 cells): dramatic sensitivity
